Tests used:
[1] = Stability in solution (decay of SIRT1 fold-stimulation of aged stock); type: physicochemical; conditions: ethanol stock solution; ethanol stock 2.5 mM, room temperature, glass vials, nitrogen; assayed at 50 μM; read-out: Stability in Solution t1/2 (converted)
Excerpt: The fold-stimulation (ratio to control) obtained with a compound diluted from an aged stock solution was compared to an identical dilution from a stock solution freshly prepared from the solid compound. “t1/2” is defined as the time required for the SIRT1 fold-stimulation of the compound from the aged solution to decay to one-half of that obtained from a freshly prepared solution. […] Stocks were aged by storage at room […] temperature, in glass vials, under a nitrogen atmosphere.

S. cerevisiae = assay: Yeast chronological lifespan; type: cell-based; conditions: 10 μM or 100 μM
recombinant GST-Sir2 = recombinant GST-Sir2 (Saccharomyces cerevisiae, UniProt P06700); assay: Sir2 deacetylation rate assay; type: biochemical, S. cerevisiae; conditions: in vitro dose-response
recombinant GST-Sir2, sequence (P06700 whole entry): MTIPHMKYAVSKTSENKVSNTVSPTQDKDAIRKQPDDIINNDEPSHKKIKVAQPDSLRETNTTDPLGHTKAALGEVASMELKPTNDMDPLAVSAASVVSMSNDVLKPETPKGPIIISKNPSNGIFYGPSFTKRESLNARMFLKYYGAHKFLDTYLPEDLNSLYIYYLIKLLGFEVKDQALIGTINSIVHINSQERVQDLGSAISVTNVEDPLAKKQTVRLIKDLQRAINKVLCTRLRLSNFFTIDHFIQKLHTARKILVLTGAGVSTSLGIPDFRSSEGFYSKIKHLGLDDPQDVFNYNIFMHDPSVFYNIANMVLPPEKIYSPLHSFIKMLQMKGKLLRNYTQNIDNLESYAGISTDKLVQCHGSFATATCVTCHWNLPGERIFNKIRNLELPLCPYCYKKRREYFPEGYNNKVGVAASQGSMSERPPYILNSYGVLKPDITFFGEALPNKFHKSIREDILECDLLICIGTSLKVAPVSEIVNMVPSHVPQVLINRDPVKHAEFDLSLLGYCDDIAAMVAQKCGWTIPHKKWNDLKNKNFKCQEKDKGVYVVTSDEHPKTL
Description: Average lifespan was determined for wild type untreated (□), quercetin (◯) and piceatannol (●).
To investigate whether these compounds could stimulate sirtuins in vivo, we utilized S. cerevisiae, an organism in which the upstream regulators and downstream targets of Sir2 are relatively well understood.
His6-tagged recombinant SIRT1 and GST-tagged recombinant Sir2 were prepared as described by (Bitterman et al. J Biol Chem 277, 45099-107. (2002). From 0.1 to 1 μg of SIRT1 and 1.5 μg of Sir2 were used per deacetylation assay (in 50 μl total reaction). SIRT1 assays and certain of those for Sir2 employed the p53-382 acetylated substrate (‘Fluor de Lys-SIRT1′, BIOMOL) rather than FdL.
Themed compound libraries (BIOMOL) were used for primary and secondary screening. […] For water soluble compounds and negative controls, 1% v/v DMSO was added to the assay. […] HeLa cells were grown and the cellular deacetylation assays were performed and read, as above, but in full-volume 96-well microplates (Corning Costar 3595). […] Calculation of net fluorescence increases included subtraction of a blank value, which in the case of Sir2 was obtained by omitting the enzyme from the reaction and in the case of SIRT1 by adding an inhibitor (200 μM suramin or 1 mM nicotinamide) to the reaction prior to the acetylated substrate. […]

SMILES: Oc1ccc(/C=C/c2cc(O)cc(O)c2)cc1 [Resveratrol, 3,5,4′-Trihydroxy-trans-stilbene]
- half-life at 50 µM [1]: 2.46 days
- Effect on chronological lifespan (S. cerevisiae): failed to extend
- Concentrations at which inhibition of Sir2 was seen (recombinant GST-Sir2): > 100 µM
- Optimum concentration of activator for Sir2 stimulation (recombinant GST-Sir2): 2 to 5 µM
